Results from ChEMBL document CHEMBL4834458, “Diterpenoids with Aromatase Inhibitory Activity from the Rhizomes of Kaempferia elegans” (J Nat Prod, 2021).

What was measured:
Aromatase [1] = target: T1, Aromatase (Homo sapiens, UniProt P11511); assay: Inhibition of aromatase (unknown origin)
T1 sequence (P11511 whole entry): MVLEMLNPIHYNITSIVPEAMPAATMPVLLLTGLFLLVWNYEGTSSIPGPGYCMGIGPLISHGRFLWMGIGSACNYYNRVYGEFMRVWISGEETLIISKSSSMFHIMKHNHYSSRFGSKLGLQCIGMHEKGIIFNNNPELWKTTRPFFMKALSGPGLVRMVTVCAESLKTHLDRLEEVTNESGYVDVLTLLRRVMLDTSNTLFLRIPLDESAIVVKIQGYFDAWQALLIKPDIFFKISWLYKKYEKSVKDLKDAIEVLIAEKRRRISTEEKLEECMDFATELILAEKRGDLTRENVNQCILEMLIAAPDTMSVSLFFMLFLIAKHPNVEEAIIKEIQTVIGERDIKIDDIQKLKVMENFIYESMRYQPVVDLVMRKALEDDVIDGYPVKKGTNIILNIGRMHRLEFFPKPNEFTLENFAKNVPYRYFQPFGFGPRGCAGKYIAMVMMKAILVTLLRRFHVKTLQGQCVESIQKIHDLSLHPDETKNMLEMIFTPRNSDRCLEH

Aromatase [2] = target: T1, Aromatase; assay: Inhibition of aromatase (unknown origin) at 12.5 uM relative to control
HepG2 = assay: Cytotoxicity against human HepG2 cells assessed as reduction in cell viability incubated for 48 hrs by MTT assay; type: functional, cell-based; details: HepG2, 48 h
[3] = Cytotoxicity against human NCI-H69AR cells assessed as reduction in cell viability incubated for 48 hrs by MTT assay; type: functional, cell-based
MDA-MB-231 = assay: Cytotoxicity against human MDA-MB-231 cells assessed as reduction in cell viability incubated for 48 hrs by MTT assay; type: functional, cell-based; details: MDA-MB-231, 48 h
MRC5 = assay: Cytotoxicity against human MRC5 cells assessed as reduction in cell viability incubated for 48 hrs by MTT assay; type: cell-based; details: MRC5, 48 h
K562 = assay: Cytotoxicity against human K562 cells assessed as reduction in cell viability incubated for 48 hrs by MTT assay; type: functional, cell-based; details: K562, 48 h
T47D = assay: Cytotoxicity against human T47D cells assessed as reduction in cell viability incubated for 48 hrs by MTT assay; type: functional, cell-based
A549 = assay: Cytotoxicity against human A549 cells assessed as reduction in cell viability incubated for 48 hrs by MTT assay; type: functional, cell-based; details: A549, 48 h
HeLa = assay: Cytotoxicity against human HeLa cells assessed as reduction in cell viability incubated for 48 hrs by MTT assay; type: functional, cell-based
HuCCT-1 = assay: Cytotoxicity against human HuCC-A1 cells assessed as reduction in cell viability incubated for 48 hrs by MTT assay; type: functional, cell-based; details: HuCCT-1, 48 h

C[C@H]1C[C@]2(O)O[C@@]1(C)C=C1CC[C@H]3C(C)(C)CCC[C@]3(C)[C@H]12
IC50 (Aromatase [1]): 11.8 µM

CC(C)c1ccc2c(c1)[C@H](O)C[C@H]1C(C)(C)CCC[C@]21C
inhibition at 12.5 µM (Aromatase [2]): 30%

C=C[C@]1(C)C=C2CC[C@H]3C(C)(C)CCC[C@]3(C)[C@H]2CC1
IC50 (Aromatase [1]): 10.4 µM

CC(C)[C@@]12CC3=C([C@@H](CO1)O2)[C@@]1(C)CCCC(C)(C)[C@@H]1CC3
inhibition at 12.5 µM (Aromatase [2]): 26%

CC(C)c1cc(O)c2c(c1)[C@H](O)C[C@H]1C(C)(C)CCC[C@]21C
IC50 (Aromatase [1]): 7.2 µM

C[C@@H]1OC(=O)C=C2[C@H](O)C[C@H]3C(C)(C)CCC[C@]3(C)[C@]21O
inhibition at 12.5 µM (Aromatase [2]): 25%

C[C@@H]1O[C@]2(C(C)(C)O)C=C3CC[C@H]4C(C)(C)CCC[C@]4(C)[C@@]31OO2
IC50 (Aromatase [1]): 10.7 µM

CC(C)c1ccc2c(c1)CC[C@H]1C(C)(C)CCC[C@]21C
inhibition at 12.5 µM (Aromatase [2]): 44%

CC(C)c1cc(O)c2c(c1)CC[C@H]1C(C)(C)CCC[C@]21C
IC50 (Aromatase [1]): 3.7 µM | IC50 (HepG2): 27.2 µM | IC50 [3]: 27.2 µM | IC50 (MDA-MB-231): 27.2 µM | IC50 (MRC5): 82.1 µM | IC50 (K562): 27.2 µM | IC50 (T47D): 129 µM | IC50 (A549): 27.2 µM | IC50 (HeLa): 27.2 µM | IC50 (HuCCT-1): 27.2 µM

CC(C)[C@@]1(O)CC[C@H]2C(CC[C@H]3C(C)(C)CCC[C@]23C)[C@H]1O (stereo partly specified)
inhibition at 12.5 µM (Aromatase [2]): 16%

C=C[C@]1(C)C=C2[C@H](O)C[C@H]3C(C)(C)CCC[C@]3(C)[C@H]2CC1
inhibition at 12.5 µM (Aromatase [2]): 31%

C[C@@H]1OC(=O)C=C2[C@H](O)C[C@H]3C(C)(C)CCC[C@]3(C)[C@H]21
inhibition at 12.5 µM (Aromatase [2]): 14%

C=C[C@@]1(C)CC(=O)C2=C(CC[C@H]3C(C)(C)CCC[C@]23C)C1
IC50 (Aromatase [1]): 7.9 µM

CC(C)C1=CC2=CC[C@H]3C(C)(C)CCC[C@]3(C)[C@H]2[C@H](O)C1
inhibition at 12.5 µM (Aromatase [2]): 36%

CC(C)[C@]1(O)C=C2[C@H](O)C[C@H]3C(C)(C)CCC[C@]3(C)[C@H]2C[C@H]1O
inhibition at 12.5 µM (Aromatase [2]): 21%

CC(C)[C@@]1(O)CC[C@H]2C(CC[C@H]3C(C)(C)CCC[C@]23C)[C@@H]1O (stereo partly specified)
inhibition at 12.5 µM (Aromatase [2]): 15%

CC(C)C1=CC(=O)C2=C(CC[C@H]3C(C)(C)CCC[C@]23C)C1=O
inhibition at 12.5 µM (Aromatase [2]): 42%
